Data reported in patent publication US20260231936A1, “COMPOUNDS AND COMPOSITIONS THAT ATTRACT THE SPECIES PSEUDOCOCCUS LONGISPINUS, ATTRACTANT DEVICE AND METHODS FOR CONTROLLING AND/OR MONITORING THE PEST” (Universitat Politècnica de València, priority 2023, published 2026).

Assays:
[1] = system: populations of P. longispinus; assay: Preliminary trap tests by UPV in persimmon cultivation, Valencian Community; assay type: in vivo, Pseudococcus longispinus
Text: The sex pheromone of the species P. longispinus was described by Millar et al. (Sex pheromone of the longtailed mealybug: a new class of monoterpene structure. Organic Letters 2009, 11, 2683-2685) as the compound 2-(1,5,5-trimethylcyclopent-2-en-1-yl)ethyl acetate, in populations of the species collected in the United States. However, this substance turned out to be ineffective in attracting populations of P. longispinus in persimmon cultivation in the Valencian Community. […] This is not uncommon, and this phenomenon has been described for the mealybug P. ficus, whose Californian populations produce a single-component pheromone, while Israeli populations produce an additional compound (Zada, A., Dunkelblum, E., Assael, F., Harel, M., Cojocaru, M. & Mendel, Z. (2003) Sex pheromone of the vine mealybug, Planococcus ficus in Israel: occurrence of a second component in a mass-reared population. Journal of Chemical Ecology, 29, 977-988).

[2] = system: Pseudococcus longispinus males; assay: Field trial of attraction response of males, persimmon orchard in Alginet; assay type: in vivo; details: for Captures (mean) of P. longispinus males: rubber septum carrier loaded with 250 μg, white sticky cardboard trap, six blocks, number of males captured per trap and per day compared
Description: (§1) The response of Pseudococcus longispinus males to 2-(1,5-dimethyl-4-methylenecyclopent-2-en-1-yl)ethyl acetate was evaluated by means of a field trial carried out in a persimmon orchard, located in the town of Alginet (Valencia, Spain). Six blocks of 3 devices were installed: (A) a device with a carrier, without attractant and with a trap consisting of a white sticky cardboard (95×150 mm), (B) a device with a carrier loaded with 250 μg of the described substance by Miller et al. in 2009 (e.g. 2-(1,5,5-trimethylcyclopent-2-en-1-yl)ethyl acetate) and a trap consisting of a white sticky cardboard, and (C) a carrier device loaded with 250 μg of 2-(1,5-dimethyl-4-methylenecyclopent-2-en-1-yl)ethyl acetate and a trap consisting of a white sticky cardboard. Within each block, the devices were placed at a distance of 10 m from each other, while the distance between blocks was at least 30 m. The carriers loaded with the substances were of the rubber septa type and were inserted in the center of the trap.
(§2) The captures obtained in each of the traps were reviewed biweekly and the captured individuals were taken to the laboratory to be identified and counted.
(§3) The number of males captured per trap and per day was compared using a variance analysis (ANOVA; LSD test for comparison of means, P<0.05), prior transformation (ln(x+1)) of the data in order to homogenize the variance.

[3] = system: Pseudococcus longispinus males; assay: Second field trial of attractant activity, persimmon orchard in L'Alcúdia; assay type: in vivo; details: for Attractant activity of baited devices (in words): 250 μg, versus traps without attractant (A); for Captures (mean) of P. longispinus males: rubber septum carrier loaded with 250 μg, white sticky cardboard trap, four blocks
Description: as §1, §2, §3
A second field trial was conducted to evaluate the attractant activity of 2-(1,5-dimethyl-4-methylenecyclopent-2-en-1-yl)ethyl propionate, in a persimmon orchard located in L'Alcúdia (Valencia, Spain). Four blocks of 3 devices were installed: (A) a device with a carrier, without attractant and with a trap consisting of a white sticky cardboard (95×150 mm), (B) a device with a carrier loaded with 250 μg of 2-(1,5-dimethyl-4-methylenecyclopent-2-en-1-yl)ethyl propionate and a trap consisting of a white sticky cardboard, and (C) a carrier device loaded with 250 μg of 2-(1,5-dimethyl-4-methylenecyclopent-2-en-1-yl)ethyl acetate and a trap consisting of a white sticky cardboard. The rest of trial conditions were the same as those described above.

[4] = Analysis of attractant content of the carrier after field exposure (emission); assay type: physicochemical
Description: as §1, with “Alginet” left out, “trap. […] Therefore, the average emission during those 21 days is 5.52±1.20 μg/day.” for “trap.”

Row | SMILES | Attraction of populations of P. longispinus (in words) ([1]; persimmon cultivation in the Valencian Community) | Males captured by traps baited with virgin females relative to traps baited with the synthetic pheromone ([1]; preliminary tests, virgin females of P. longispinus as comparator) [times] | Captures (mean) of P. longispinus males [2] | Attractant activity of baited devices (in words) [3] | Captures (mean) of P. longispinus males [3] | Final content of the substance in the carrier ([4]; after 21 days, carrier initially loaded with 250 μg) [µg] | Average emission ([4]; during 21 days, rubber septum loaded with 250 μg) [µg/day] | Attractive power of baited devices (in words) ([2]; 250 μg, versus traps without attractant (A) and pheromone described by Millar et al. (B))
1 | CC(=O)OCCC1(C)C=CCC1(C)C (centres unmarked) [Millar et al. (B), 2-(1,5,5-trimethylcyclopent-2-en-1-yl)ethyl acetate] | ineffective | 100 | 0.21 a | – | – | – | – | –
2 | C=C1C=CC(C)(CCOC(C)=O)C1C (racemic) [Acetate of formula I (C), 2-(1,5-dimethyl-4-methylenecyclopent-2-en-1-yl)ethyl acetate] | – | – | 19.35 b | highest level of captures | 406.58 c | 134 | 5.52 ± 1.20 | significantly higher attractive power
3 | C=C1C=CC(C)(CCOC(=O)CC)C1C (centres unmarked) [Propionate of formula I (B), 2-(1,5-dimethyl-4-methylenecyclopent-2-en-1-yl)ethyl propionate] | – | – | – | significant attractant activity | 89.07 b | – | – | –
